“Also recorded” adds a separate entry of the source. Like-named read-outs stand apart in the source and are kept apart here.
Columns and labels:
[1] = test system: U937 cells; assay: Proliferation of U937 cells; assay type: cell-based, human; conditions: concentrations ≥300 µM
Procedure: U937 cells were plated in sterile 96-U-well plates (92697, TPP, Trasadingen, Switzerland) at a density of 100 cells/µL in a cell culture medium (180 µL per well). Increasing concentrations of inhibitors and solvent controls were diluted in a culture medium and added (20 µL/well) to the 96-well plate 26 h, 6 h, 3 h, and 0 h before harvesting and lysing the cells (see below). Plates were kept at 37 °C, 5% CO2, and 95% humidity throughout the incubation period.

[2] = test system: U937 cells; assay: LDH release from U937 cells; assay type: cell-based, human; conditions: 1000 and 300 µM, after 26 h
Procedure: Cytotoxicity of the inhibitors was determined by analyzing the release of lactate dehydrogenase (LDH) into the cell culture medium using the LDH cytotoxicity kit II (PromoKine, Heidelberg, Germany) or the more sensitive Pierce LDH cytotoxicity assay kit (Thermo Scientific, Darmstadt, Germany) following the manufacturer’s instructions.

[3] = target: T1, isolated HNE (Homo sapiens, UniProt P08246); assay: Formation and dissociation of the HNE/inhibitor complex (pre-steady-state kinetics); assay type: biochemical; conditions: pre-steady-state kinetics, HNE 0.6 nM, 37 °C, mean ± SD
T1 construct: immediately processed to its active form in the trans-Golgi before being targeted to azurophil granules; purchased Merck (Darmstadt, Germany) 324681
T1 sequence (P08246 30-267): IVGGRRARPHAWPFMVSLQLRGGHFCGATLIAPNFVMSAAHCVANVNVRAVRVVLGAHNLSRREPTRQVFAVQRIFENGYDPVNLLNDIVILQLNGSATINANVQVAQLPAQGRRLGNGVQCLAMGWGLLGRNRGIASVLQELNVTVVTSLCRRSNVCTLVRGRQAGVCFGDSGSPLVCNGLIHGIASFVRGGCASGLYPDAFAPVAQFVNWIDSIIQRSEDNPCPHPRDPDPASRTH
Procedure: To determine the association rates (kon) of the inhibitors, the enzymatic activity of HNE (0.6 nM) was recorded continuously in an SFM25 fluorometer (Biotek Kontron, Neufahrn, Germany) by following the cleavage of MeOSuc-AAPV-AMC (10 µM) at 37 °C. When a constant rate was established (i.e., after 1–5 min), an inhibitor was added, and the reaction followed for up to 60 min. The pseudo-first-order rate constant kobs was obtained by fitting the observed presteady-state progress curve to the integrated equation of Morrison with pro-Fit. Apparent second-order rate constants were subsequently calculated as k2/Ki = kobs/It by linear regression from several independent experiments using a range of concentrations. For reversible inhibitors, the dissociation rate koff was subsequentially calculated as koff = Ki × kon; for irreversible inhibitors, koff is ≈ zero. Finally, the halftime of the HNE/inhibitor complex formation and dissociation were calculated as t1/2,on = 0.693/(kass × It + koff) and t1/2,off = 0.693/koff, respectively.

[4] = target: T2, HNE in U937 lysates (Homo sapiens, UniProt P08246); assay: Inhibition of HNE activity in U937 lysates; assay type: biochemical
T2 construct: the myeloid cell line U937, which can differentiate into neutrophils [25] and expresses HNE; host or cells: U937 (histiocytic lymphoma), undifferentiated
T2 sequence (P08246 30-247 limits assumed): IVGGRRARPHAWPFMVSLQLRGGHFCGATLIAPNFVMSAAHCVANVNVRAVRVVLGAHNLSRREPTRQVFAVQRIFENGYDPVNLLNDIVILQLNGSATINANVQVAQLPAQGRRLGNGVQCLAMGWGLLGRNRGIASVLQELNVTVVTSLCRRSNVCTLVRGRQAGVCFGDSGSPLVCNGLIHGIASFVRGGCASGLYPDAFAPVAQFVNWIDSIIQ
Procedure: (§1) For the quantification and characterization of HNE-like activity in cell lysates, the density of the sample cell suspension was first quantified using a CASY-1 cell counter.
(§2) To determine the inhibition constants of reversible inhibitors with isolated HNE and HNE in cell lysates, HNE (0.5 nM) and U937 lysates (1000 cells/µL) were incubated with serial dilutions of the compounds in assay buffer at 37 °C for ≥ 1 h. Subsequently, residual HNE activity was measured as described above and compared to the activity of uninhibited HNE. […] The inhibition curves generated were fitted to Morrisons’s equation to obtain the dissociation equilibrium constant Ki with pro-Fit (Quantum Soft, Uetikon am See, Switzerland) using a Levenberg–Marquardt algorithm.

[5] = target: T3, isolated HNE (human neutrophil elastase) (Homo sapiens, UniProt P08246); assay: Inhibition of isolated HNE, steady-state kinetics (MeOSuc-AAPV-AMC); assay type: biochemical
T3 construct: immediately processed to its active form in the trans-Golgi before being targeted to azurophil granules; purchased Merck (Darmstadt, Germany) 324681
T3 sequence (P08246 30-267): T1 sequence (P08246 30-267)
Procedure: as §2

[6] = target: T3, isolated HNE (human neutrophil elastase); assay: as above; assay type: biochemical; conditions: read-out: IC50(60min), isolated HNE; irreversible inhibitors, incubated 1 h, logistic fit, mean ± SD
[7] = target: T4, elastase-like activity (HNE) in PMN lysates (Homo sapiens, UniProt P08246); assay: Inhibition of elastase-like activity in PMN lysates; assay type: biochemical; conditions: 1 mM, 1 h, 37 °C
T4 construct: from tissue; host or cells: neutrophil granulocytes from peripheral venous blood of healthy human donors
T4 sequence (P08246 30-247 limits assumed): T2 sequence (P08246 30-247 limits assumed)
From the text: Residual erythrocytes were eliminated by hypotonic lysis.
as §1

[8] = test system: elastase-like activity in HL-60 lysates; assay: Inhibition of elastase-like activity in HL-60 lysates; assay type: biochemical, human; conditions: 1 mM, 1 h, 37 °C
From the text: as §1

[9] = Inhibitor stability in serum-free cell culture medium; assay type: physicochemical; conditions: 26 h, serum-free medium (RPMI), 37 °C
Procedure: Inhibitors were prepared as above and incubated for 26 h in RPMI at 37 °C. Residual inhibitor activity was compared to the activity of freshly prepared compounds by measuring the inhibition of HNE.

[10] = target: T5, HNE in mature PMN (Homo sapiens, UniProt P08246); assay: Intracellular HNE inhibition in freshly isolated mature PMN; conditions: read-out: IC50, HNE in PMN; 1 h incubation
T5 sequence (P08246 30-247 limits assumed): T2 sequence (P08246 30-247 limits assumed)
Procedure: Peripheral venous blood was collected from six healthy donors after informed consent (votum 018-09 of the local ethics committee), and differential blood counts were performed. Neutrophil granulocytes were isolated using the MACSxpress neutrophil isolation kit (Miltenyi Biotec, Bergisch Gladbach, Germany) following the manufacturer’s instructions. Residual erythrocytes were eliminated by hypotonic lysis. Neutrophils were resuspended in PBS with glucose (1 g/L) at a density of 50–100 cells/µL. The purity of the final cell population was analyzed by staining a smear using Pappenheim’s method and counting ≥200 cells using a light microscope.
(§3) The enzymatic activity of HNE was measured using a fluorescence-based assay in 96-well black bottom plates (Corning®, 003916, New York, NY, USA). HNE (0.5 nM) or cell lysates (20 µL, ~100 PMN/µL, ~1000 U937/µL, ~5000 HL-60/µL or ~1000 HMC-1/µL) were diluted in assay buffer (200 mM TRIS HCl, 500 mM NaCl, 0.05% Tween-20, pH 8.0). […] AMC (7-Amino-4-methylcoumarin) standard curves were generated by measuring serial dilutions of the fluorophore AMC (1 µM–0 µM) in assay buffer on the same plate and used to calculate nM AMC generation from fluorescence measurements.
(§4) U937 cells were plated in sterile 96-U-well plates (92697, TPP, Trasadingen, Switzerland) at a density of 100 cells/µL in a cell culture medium (180 µL per well). Increasing concentrations of inhibitors and solvent controls were diluted in a culture medium and added (20 µL/well) to the 96-well plate 26 h, 6 h, 3 h, and 0 h before harvesting and lysing the cells (see below). Plates were kept at 37 °C, 5% CO2, and 95% humidity throughout the incubation period. […] Similarly, freshly isolated PMN were plated at 50–100 cells/µL in PBS (1 g/L glucose) and incubated for 1 h with inhibitors or controls.
(§5) For cell lysis, cells were pelleted in the microtiter plates by centrifugation (400× g, 10 min, 4 °C) and washed three times in PBS (4 °C). Washed cells were then lysed by adding lysis buffer (PBS, 1 M NaCl, 0.1% Tween-20, pH 7.4) and freeze–thawing on dry ice. Finally, lysates were centrifuged (2100× g) to remove cell debris. Enzymatic activity of HNE was determined as described above, and residual activity present after incubation with inhibitors expressed as % of matched solvent controls.

[11] = target: T6, HNE in U937 cells (Homo sapiens, UniProt P08246); assay: Intracellular HNE inhibition in cultured U937 cells (residual activity in lysates); assay type: cell-based
T6 construct: the myeloid cell line U937, which can differentiate into neutrophils [25] and expresses HNE; host or cells: U937 (histiocytic lymphoma), undifferentiated
T6 sequence (P08246 30-247 limits assumed): T2 sequence (P08246 30-247 limits assumed)
Procedure: as §3, §4, §5

Compound: Cl.NCCc1ccc(S(=O)(=O)F)cc1 [Pefabloc SC]
- reduction of U937 cell proliferation [1]: 50 ± 3%
- LDH release from U937 cells [2]: 12 ± 2%
- kon [3]: 1.0 ± 0.1 M⁻¹ s⁻¹
- inhibition of elastase-like activity in U937 lysate ([4]; 1 mM, 1 h, 37 °C): 91 ± 0.6%
- IC50 ([4]; read-out: IC50(60min), U937 lysate, irreversible inhibitors, incubated 1 h, logistic fit, mean ± SD): 130 µM
- inhibition of activity of isolated HNE ([5]; 1 mM, 1 h, 37 °C, HNE 0.5 nM): 98 ± 0.6%
- inhibition of isolated HNE ([5]; at ~10^−3 M): nearly complete inhibition
- IC50 [6]: 130 µM
- inhibition of elastase-like activity in PMN lysate [7]: 97 ± 0.6%
- inhibition of elastase-like activity in HL-60 lysate [8]: 95 ± 1%
- decrease of inhibitory activity after incubation in medium [9]: approximately 50%
- IC50 [10]: ~100 µM
- time course of HNE inhibition in U937 cells (in words) ([11]; 0-26 h culture): increases during the first 6 h; also recorded: lose effectiveness over time
- IC50 ([11]; 0 h incubation, read-out: IC50, HNE in U937 cells at 0 h): ~100 µM
- inhibition of HNE in intact U937 cells ([11]; at ~10^−3 M): nearly complete inhibition
- IC50 ([11]; intact U937 cells, time not specified, read-out: IC50, HNE in intact U937 cells): ~100 µM
- IC50 ([11]; read-out: IC50, HNE in U937 cells at 6 h, 6 h incubation): ~10 µM
